This is an account of results in ChEMBL document CHEMBL1201862, “PubChem BioAssay data set” (2004).

Some test systems named below: M14; K562; HOP-92; SN12C; KM12; SF-539; CCRF-CEM; SF-295; A549; U-251; OVCAR-5; RPMI-8226; SW-620; HL-60; COLO 205; HOP-62; HCT-15; NCI-H522; SF-268; RXF 393.
Holding throughout (assay): inhibition of tumour cell growth, NCI panel, 48 h

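These data come from cells grown in 96-well plates and exposed to compound for 48 hours at five concentrations. The concentration for 50% growth inhibition is given as GI50.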 Active and inactive are the calls of the source. Rule as the data show it: active = GI50 up to about 1.1 µM and inactive = higher.

On to `CC1=CC2=C(C)C3(CC3)[C@@](C)(O)C(=O)C2=C1`, for which the GI50 with M14 was 0.171 µM (active); with K562, > 1 µM (active); with HOP-92 it was 0.307 µM (active); in the assay with SN12C, 0.231 µM (active); in the assay with KM12 it was 0.355 µM (active); in the assay on SF-539, 0.219 µM (active). Moreover, the GI50 in the assay on CCRF-CEM is > 1 µM (active); in the assay on SF-295, 0.223 µM (active); with A549, 0.314 µM (active); in the assay with U-251, 0.209 µM (active); in the assay with OVCAR-5, 0.239 µM (active); in the assay with RPMI-8226 it was > 1 µM (active). For the same compound, the GI50 in the assay with SW-620 is > 1 µM (active); with HL-60, 0.135 µM (active); in the assay on COLO 205, 0.221 µM (active); in the assay on HOP-62, 0.146 µM (active); in the assay on HCT-15, 0.193 µM; with NCI-H522, 0.145 µM (active). For the same compound, the GI50 in the assay on SF-268 was 0.133 µM (active); in the assay with RXF 393, 0.149 µM (active).

For `O=C1OC2C(O)COC2(O)C1(O)Cc1c[nH]c2ccccc12.O=C1OC2C(O)COC2(OCc2c[nH]c3ccccc23)C1O` (stereo not given), the GI50 in the assay on M14, in the assay with K562, in the assay on HOP-92, with SN12C, in the assay with KM12 and with SF-539 was > 100 µM (inactive) in each case. Besides, the GI50 with CCRF-CEM, in the assay with SF-295, with A549, in the assay on U-251, in the assay with OVCAR-5 and in the assay on RPMI-8226 was > 100 µM (inactive) throughout. Further, the GI50 with SW-620 is > 100 µM (inactive); with HL-60 it was > 100 µM (inactive); with COLO 205 it was > 100 µM (inactive); in the assay with HOP-62, > 100 µM (inactive); with HCT-15, greater than 100 µM; in the assay with NCI-H522, > 100 µM (inactive). Further, the GI50 with SF-268 and in the assay with RXF 393 was > 100 µM (inactive) in each case.

In the case of `O=C1c2ccccc2CC12Cc1cc3c(cc1C2)CCC3`, the GI50 in the assay with M14 was 19.5 µM (inactive); in the assay with K562 it was 86.7 µM (inactive); with HOP-92, 37.6 µM (inactive); with SN12C it was 59.7 µM (inactive); with KM12, 53.5 µM (inactive); in the assay on SF-539, > 100 µM (inactive). The GI50 was 55.3 µM (inactive) in the assay on CCRF-CEM; > 100 µM (inactive) in the assay on SF-295; > 100 µM (inactive) in the assay with A549; 43.1 µM (inactive) in the assay on U-251; > 100 µM (inactive) in the assay with OVCAR-5; 32 µM (inactive) with RPMI-8226. In addition, the GI50 in the assay with SW-620 was 78.2 µM (inactive); in the assay on HL-60, 24 µM (inactive); with COLO 205 it was 31.3 µM (inactive); with HOP-62, > 100 µM (inactive); with HCT-15, 43.2 µM; with NCI-H522, 30.5 µM (inactive). Moreover, the GI50 is > 100 µM (inactive) in the assay with SF-268 and 40.6 µM (inactive) in the assay on RXF 393.

For `O=C(NO)C(=O)Nc1ccc(Cl)cc1[N+](=O)[O-]`, the GI50 in the assay on M14 was > 100 µM (inactive); in the assay on K562, > 100 µM (inactive); in the assay with HOP-92, 83.9 µM (inactive); in the assay on SN12C, > 100 µM (inactive); in the assay on KM12 it was > 100 µM (inactive); in the assay on SF-539, > 100 µM (inactive). In addition, the GI50 in the assay with CCRF-CEM, with SF-295, in the assay with A549, with U-251, in the assay on OVCAR-5 and with RPMI-8226 was > 100 µM (inactive) in each case. In addition, the GI50 in the assay on SW-620 was > 100 µM (inactive); in the assay with HL-60 it was > 100 µM (inactive); with COLO 205 it was > 100 µM (inactive); in the assay on HOP-62 it was > 100 µM (inactive); with HCT-15, greater than 100 µM; with NCI-H522, > 100 µM (inactive). For the same compound, the GI50 with SF-268 and in the assay with RXF 393 was > 100 µM (inactive) each time.

As to `COc1c(C(=O)/C(=N/Nc2cccc(Cl)c2)C(C)=O)c(O)c(OC)c2occc12`, the GI50 in the assay with M14 was > 100 µM (inactive); in the assay on K562 it was > 100 µM (inactive); with HOP-92, 67.1 µM (inactive); in the assay on SN12C it was 61.2 µM (inactive); in the assay on KM12, > 100 µM (inactive); in the assay on SF-539 it was > 100 µM (inactive). Further, the GI50 with CCRF-CEM was 88.1 µM (inactive); with SF-295, 58.1 µM (inactive); in the assay on A549, > 100 µM (inactive); in the assay with U-251, > 100 µM (inactive); with OVCAR-5 it was > 100 µM (inactive); in the assay with RPMI-8226 it was 80.9 µM (inactive). Besides, the GI50 with SW-620 was 76.4 µM (inactive); with HL-60, > 100 µM (inactive); in the assay with COLO 205, > 100 µM (inactive); in the assay with HOP-62, > 100 µM (inactive); in the assay on HCT-15, greater than 100 µM; in the assay on NCI-H522, > 100 µM (inactive). For the same compound, the GI50 in the assay with SF-268 is 87.3 µM (inactive); with RXF 393 it was 34.6 µM (inactive).

For the compound `Cc1cc2oc(-c3ccccc3)c(C)c(=O)c2c2c1OC(C)(C)S2`, the GI50 was > 100 µM (inactive) in the assay with M14; 30.9 µM (inactive) in the assay with K562; 27.2 µM (inactive) in the assay on HOP-92; > 100 µM (inactive) in the assay with SN12C; 43.7 µM (inactive) with KM12; > 100 µM (inactive) with SF-539. The GI50 in the assay with CCRF-CEM was 62.8 µM (inactive); in the assay on SF-295, > 100 µM (inactive); with A549 it was 90.2 µM (inactive); in the assay on U-251 it was > 100 µM (inactive); in the assay with OVCAR-5 it was > 100 µM (inactive); in the assay with RPMI-8226, 47 µM (inactive). For the same compound, the GI50 with SW-620 was > 100 µM (inactive); in the assay with HL-60 it was 8.13 µM (inactive); with COLO 205, 61.2 µM (inactive); in the assay on HOP-62, > 100 µM (inactive); in the assay on HCT-15 it was greater than 100 µM; in the assay with NCI-H522 it was 72.3 µM (inactive). Further, the GI50 in the assay on SF-268 was > 100 µM (inactive); with RXF 393, 70.3 µM (inactive).

`CC(=O)/C=C/C1=C(C)CCCC1(C)CC(C)C` (stereo not given): the GI50 in the assay on M14 is 31.6 µM (inactive); in the assay with K562, 16 µM (inactive); in the assay with HOP-92, 6.73 µM (inactive); with SN12C, 18.8 µM (inactive); in the assay on KM12, 34.8 µM (inactive); in the assay on SF-539, 31.9 µM (inactive). Further, the GI50 with CCRF-CEM is 14.9 µM (inactive); in the assay on SF-295 it was 34.2 µM (inactive); in the assay on A549 it was 24.9 µM (inactive); in the assay on U-251 it was 26.7 µM (inactive); with OVCAR-5 it was 61.5 µM (inactive); in the assay on RPMI-8226 it was 13.7 µM (inactive). The GI50 in the assay on SW-620 was 18.6 µM (inactive); with HL-60, 11.7 µM (inactive); with COLO 205, 30.3 µM (inactive); in the assay with HOP-62, 57.9 µM (inactive); with HCT-15 it was 15.1 µM; with NCI-H522, 18.4 µM (inactive). Moreover, the GI50 in the assay on SF-268 was 39.7 µM (inactive); with RXF 393, 14.8 µM (inactive).
